Measured values as given in patent US5723485A, “1,2-Diarylindole derivatives, processes for their preparation and their uses in therapeutics” (Laboratories UPSA, priority 1996, dated 1998).

Tests used:
[1] = target: T1, COX-2 (purified enzyme from ewe placenta) (Ovis aries, UniProt P79208); test: Inhibition of COX-2 enzymatic activity (PGE2 determined by EIA); assay type: biochemical; conditions: arachidonic acid 4 μM, mean ± standard deviation, 4 determinations; for inhibition at 10 µM: 10^-5 M
T1 construct: purified enzyme from ewe placenta; from tissue; host or cells: ewe placenta
T1 sequence (P79208 17-603): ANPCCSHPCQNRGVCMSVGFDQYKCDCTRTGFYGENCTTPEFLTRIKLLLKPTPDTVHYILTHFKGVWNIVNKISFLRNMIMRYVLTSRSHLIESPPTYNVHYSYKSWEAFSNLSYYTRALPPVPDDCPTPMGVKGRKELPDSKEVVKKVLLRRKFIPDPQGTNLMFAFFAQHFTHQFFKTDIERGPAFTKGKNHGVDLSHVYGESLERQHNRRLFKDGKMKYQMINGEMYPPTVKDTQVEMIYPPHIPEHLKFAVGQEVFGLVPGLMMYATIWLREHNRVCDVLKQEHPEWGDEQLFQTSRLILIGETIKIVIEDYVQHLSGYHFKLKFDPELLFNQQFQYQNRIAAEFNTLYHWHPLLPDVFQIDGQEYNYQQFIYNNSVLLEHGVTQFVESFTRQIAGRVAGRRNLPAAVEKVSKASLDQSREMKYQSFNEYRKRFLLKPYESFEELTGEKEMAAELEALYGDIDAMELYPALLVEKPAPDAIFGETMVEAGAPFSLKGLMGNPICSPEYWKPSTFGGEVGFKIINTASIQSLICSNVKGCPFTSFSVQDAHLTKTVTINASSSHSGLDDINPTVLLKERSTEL
Procedure: (§1) The molecule studied is preincubated for 10 minutes at 25° C. with 2 U of COX-1 (purified enzyme from ram seminal vesicles) or 1 U of COX-2 (purified enzyme from ewe placenta). Arachidonic acid (6 μM for COX-1, 4 μM for COX-2) is added to the reaction medium and incubation is carried out for 5 minutes at 25° C. When incubation has ended, the enzymatic reaction is stopped by the addition of 1N HCl and the PGE2 produced is determined by EIA. The results are expressed as the percentage inhibition of the COX-1 and COX-2 enzymatic activities and correspond to mean (±) standard deviations from the average of 4 determinations.

[2] = target: T2, COX-1 (purified enzyme from ram seminal vesicles) (Ovis aries, UniProt P05979); test: Inhibition of COX-1 enzymatic activity (PGE2 determined by EIA); assay type: biochemical; conditions: arachidonic acid 6 μM, mean ± standard deviation, 4 determinations; for inhibition at 10 µM: 10^-5 M; for inhibition at 0.1 µM: 10^-7 M
T2 construct: purified enzyme from ram seminal vesicles; from tissue; host or cells: ram seminal vesicles
T2 sequence (P05979 25-600): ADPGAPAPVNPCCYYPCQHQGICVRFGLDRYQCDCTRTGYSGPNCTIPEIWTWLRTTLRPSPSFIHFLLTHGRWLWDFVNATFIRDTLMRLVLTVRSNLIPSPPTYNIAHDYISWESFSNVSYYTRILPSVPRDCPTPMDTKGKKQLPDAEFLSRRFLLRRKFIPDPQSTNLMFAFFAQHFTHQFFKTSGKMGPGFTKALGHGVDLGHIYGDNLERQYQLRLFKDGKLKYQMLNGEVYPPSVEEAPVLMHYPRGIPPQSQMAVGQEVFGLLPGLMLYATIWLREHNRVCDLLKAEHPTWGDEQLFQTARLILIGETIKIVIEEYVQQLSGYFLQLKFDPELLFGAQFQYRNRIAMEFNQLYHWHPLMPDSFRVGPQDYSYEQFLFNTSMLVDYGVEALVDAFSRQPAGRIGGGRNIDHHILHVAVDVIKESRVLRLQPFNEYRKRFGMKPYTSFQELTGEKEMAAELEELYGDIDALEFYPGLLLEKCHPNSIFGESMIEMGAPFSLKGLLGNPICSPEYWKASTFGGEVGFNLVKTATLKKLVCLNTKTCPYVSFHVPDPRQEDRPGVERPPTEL
Procedure: as §1

inhibition at 10 µM [1] [%]	inhibition at 10 µM [2] [%]	inhibition at 0.1 µM [2] [%]	inhibition at 0.1 µM ([1]; 10^-7 M) [%]	SMILES
89 ± 2	29 ± 5	2 ± 2		Cc1ccc(-n2c(-c3ccc(S(C)(=O)=O)cc3)cc3ccccc32)cc1 [Example 17, 1-(4-Methylphenyl)-2-[4-(methylsulfonyl)phenyl]indole]
83 ± 2	36 ± 14	4 ± 4	29 ± 2	CS(=O)(=O)c1ccc(-c2cc3ccccc3n2-c2ccc(F)cc2)cc1 [Example 16, 1-(4-Fluorophenyl)-2-[4-(methylsulfonyl)phenyl]indole]
95				CS(=O)(=O)c1ccc(-c2cc3ccccc3n2-c2ccc(Cl)cc2)cc1 [Example 19, 1-(4-Chlorophenyl)-2-[4-(methylsulfonyl)phenyl]indole]
88 ± 2	23 ± 6	2 ± 2		CS(=O)(=O)c1ccc(-c2cc3ccccc3n2-c2ccccc2)cc1 [Example 18, 1-Phenyl-2-[4-(methylsulfonyl)phenyl]indole]
